The source of these data is US4699897A, “Biologically active peptides structurally related to regions within growth hormones” (Amgen, priority 1983, dated 1987).

Square brackets hold non-standard residues; d marks the D form. Peptide text beside a SMILES is read from it.

Assay [1] concerns GT-impaired strain of mice (YS/Wf Nctr). The following applies: cited from earlier work.
For a further assay, the system named is Sprague-Dawley rats. Put plainly: Insulin potentiating effects of Peptide No. 6 compared to DP in rats (plasma glucose). In kind it is in vivo. The following applies: for Plasma Glucose (mg/dL at 60 min.), Glucose + Insulin + peptide, Rat (normal): i.p. glucose + insulin 0.001 mU/10 g + peptide 5 μg/10 g. Here is the method:
(§1) A study was conducted to determine the relative insulin potentiating effects of Peptide No. 6 as compared to those of deletion peptide ("hGH32-46 ").
(§2) Animals in test groups of five each were meployed in these procedures. Sprague-Dawley rats weighed approximately 200 grams; homozygous genetically abnormal mice (db/db and ob/ob) had weights in the range of 40 to 60 grams; heterozygous normal mice all weighed approximately 25 grams. Glucose was administered intraperitoneally at a dosage of […] of a solution containing 135 mg/ml glucose, except for one group of rats which were given an oral dose of 1 ml of 270 mg/ml glucose solution. Insulin was intraperitoneally administered at a dose of 0.001 mU/10 g and both Peptide No. 6 and deletion peptide were administered were simultaneously administered at a dose of 5 μg/10 g.

In assay [2] the test system is various model animal test systems. As to conditions: cited from earlier work.
Assay [3] deals with normal rats. The following applies: cited from earlier work.
The test system of assay [4] is insulin-stimulated fat cells of older obese rats. The following applies: cited from earlier work.
The subject of assay [5] is ob/ob, ob/+, db/db and db/m mice. In words: Insulin potentiating effects of Peptide No. 6 compared to DP in mice (plasma glucose). As to conditions: for Plasma Glucose (mg/dL at 60 min.), Glucose + Insulin + peptide, Mouse db/db / Plasma Glucose (mg/dL at 60 min.), Glucose + Insulin + peptide, Mouse db/m (normal) / Plasma Glucose (mg/dL at 60 min.), Glucose + Insulin + peptide, Mouse ob/+ (normal) / Plasma Glucose (mg/dL at 60 min.), Glucose + Insulin + peptide, Mouse ob/ob: i.p. glucose + insulin 0.001 mU/10 g + peptide 5 μg/10 g. Format: in vivo, mouse. How it is done: as §1, §2

Assay [6] deals with normal female Rhesus monkeys. Put plainly: Insulin potentiating effects in primates of Peptide No. 6 compared to deletion peptide (plasma glucose). Format: in vivo, Rhesus monkey. Here is the method:
In a manner analogous to Study C, above, Peptide No. 6 and deletion peptide were studied for insulin potentiating effects in Rhesus monkeys. Blood samples were drawn from normal female monkeys (in […] experimental groups of 3) five minutes before administration of an oral dose of 3.0 ml/kg of 0.5 g/ml glucose and intramuscular administration of either: (1) 0.5 ml/kg phosphate buffered saline (PBS), pH 7.4; (2) deletion peptide 0.1 ml/kg of 1.0 mg/ml solution in PBS; (3) deletion peptide as above combined with 0.5 ml/kg of 20 mU/ml insulin in PBS; or (4) insulin alone as above or (5) Peptide No. 6 0.1 ml/kg of a 0.5 mg/ml solution in PBS combined with insulin as above. Blood samples were then periodically withdrawn over two hours and analyzed for plasma glucose levels.

The subject of assay [7] is normal male Sprague-Dawley rats. In words: Insulin potentiating effects in normal rats (plasma glucose after i.p. glucose load). Format: in vivo, rat. The following applies: for Plasma Glucose (mg/dL at 60 min.), Glucose + Insulin + Peptide: rats fasted 18 h, i.p. 1.0 ml 0.75M glucose + 15 mU insulin + 25 μg peptide, mean ± standard error. Here is the method:
A study was conducted to determine insulin potentiating effects of Peptide Nos. 3, 5, and 6. Also tested was a dipeptide NH2 -Ile-Pro-COOH, a dipeptide outside the scope of the invention. Test groups of 5 normal male Sprague-Dawley rats weighing about 200 grams were fasted for 18 hours and received (intraperitoneally in rapid succession) 1.0 ml of 0.75M glucose, and either 15 mU of insulin with 1% bovine serum ablumin in normal saline (pH 7.4) or a mixture of insulin as above with 25 μg Peptide Nos. 3, 5, 6 and dipeptide. Controls received only bovine serum albumin and saline. Blood was drawn after one hour and plasma glucose levels were determined.

The next assay deals with db/db mice. In words: Insulin potentiating effects on genetically altered mice at differing ages (plasma glucose). Format: in vivo, mouse. As to conditions: for Plasma Glucose (mg/dL at 60 min.), Age: 8 weeks, Glucose + Insulin + Peptide: db/db mice aged 8 weeks; for Plasma Glucose (mg/dL at 60 min.), Age: 8 weeks, Glucose + Insulin + Peptide / Plasma Glucose (mg/dL at 60 min.), Age: 14 weeks, Glucose + Insulin + Peptide: i.p. glucose + insulin 0.001 mU/10 g + peptide 5 μg/10 g; for Plasma Glucose (mg/dL at 60 min.), Age: 14 weeks, Glucose + Insulin + Peptide: db/db mice aged 14 weeks. How it is done: A study was conducted to ascertain insulin potentiating effects of Peptide Nos. 6, 9 and 10 on db/db mice aged 8 weeks and 14 weeks.
Test groups of 5 each of db/db mice weighing from 40 to 60 grams each were used. Glucose was administered intraperitoneally at a dosage of […] of a solution containing 135 mg/ml glucose. Insulin was intraperitoneally administered at a dose of 0.001 mU/10 g and Peptide Nos. 6, 9 and 10 were each simultaneously administered at a dose of 5 μg/10 g.

The subject of the next assay is rabbits. As to conditions: cited from earlier work.
The test system of assay [8] is normal rats. As to conditions: cited from earlier work. The source holds these as a separate data set.

Consider `CC[C@H](C)[C@H](NC(=O)[C@H](Cc1ccc(O)cc1)NC(=O)[C@H](C)NC(=O)[C@H](CCC(=O)O)NC(=O)[C@@H](N)CCC(=O)O)C(=O)N1CCC[C@H]1C(=O)N[C@@H](CCCCN)C(=O)N[C@@H](CCC(=O)O)C(=O)N[C@@H](CCC(N)=O)C(=O)N[C@@H](CCCCN)C(=O)N[C@@H](Cc1ccc(O)cc1)C(=O)N[C@@H](CO)C(=O)N[C@@H](Cc1ccccc1)C(=O)N[C@@H](CC(C)C)C(=O)N[C@@H](CCC(N)=O)C(=O)O` [hGH32-46, NH2 -Glu-Glu-Ala-Tyr-Ile-Pro-Lys-Glu-Gln-Lys-Tyr-Ser-Phe-Leu-Gln-COOH] (H-EEAYIPKEQKYSFLQ-OH), for which the glucose tolerance entry in [1] was “unspecified degree of improvement in glucose tolerance”. The Plasma Glucose (mg/dL at 60 min.), Glucose + Insulin + peptide, Rat* (normal) with Sprague-Dawley rats (glucose administered orally (1 ml of 270 mg/ml) + insulin 0.001 mU/10 g + peptide 5 μg/10 g) turned out to be 93.3 ± 14 mg/dL. The Plasma Glucose (mg/dL at 60 min.), Glucose + Insulin + peptide, Rat (normal) in the assay with Sprague-Dawley rats amounted to 73 ± 10 mg/dL. In [2] (contemporaneously administered with exogenous insulin), the “potentiation of insulin activity” value was “potentiate insulin activity and augment the hypoglycemic effectiveness of even quite small parenteral doses of insulin”. Also, the “hypoglycemic effects of the peptide alone” value in assay [2] (various model animal test systems) is recorded as “lacked hypoglycemic effects”. Moreover, in the assay on normal rats [3], the “late increases in free fatty acids and glycemic effects” value is “did not show either the late increases in free fatty acids nor the glycemic effects which are characteristic of intact hGH”. For the same molecule, the “in vitro glucose utilization of fat cells” value in [4] (insulin-stimulated fat cells of older obese rats, Frigeri et al.) was “in vitro increase in glucose utilization”. Besides, in assay [5], the Plasma Glucose (mg/dL at 60 min.), Glucose + Insulin + peptide, Mouse db/db amounted to 134 ± 13 mg/dL; the Plasma Glucose (mg/dL at 60 min.), Glucose + Insulin + peptide, Mouse db/m (normal) was 49 ± 12 mg/dL; the Plasma Glucose (mg/dL at 60 min.), Glucose + Insulin + peptide, Mouse ob/+ (normal) is 56 ± 9 mg/dL; the Plasma Glucose (mg/dL at 60 min.), Glucose + Insulin + peptide, Mouse ob/ob was determined as 138 ± 11 mg/dL. In addition, in [6] (+5 min., oral glucose + i.m. insulin + peptide 0.1 ml/kg of 1.0 mg/ml), the Plasma Glucose (mg/dL), Glucose + Insulin + hGH32-46, +5 min. was 64 ± 4 mg/dL. In addition, the Plasma Glucose (mg/dL), Glucose + Insulin + hGH32-46, +15 min. in assay [6] (+15 min., oral glucose + i.m. insulin + peptide 0.1 ml/kg of 1.0 mg/ml) came to 69 ± 9 mg/dL. In addition, the Plasma Glucose (mg/dL), Glucose + Insulin + hGH32-46, +30 min. in assay [6] (+30 min., oral glucose + i.m. insulin + peptide 0.1 ml/kg of 1.0 mg/ml) was determined as 80 ± 5.3 mg/dL. Moreover, the Plasma Glucose (mg/dL), Glucose + Insulin + hGH32-46, +45 min. in assay [6] (+45 min., oral glucose + i.m. insulin + peptide 0.1 ml/kg of 1.0 mg/ml) came to 80 ± 5.9 mg/dL. Further, the Plasma Glucose (mg/dL), Glucose + Insulin + hGH32-46, +60 min. in [6] (+60 min., oral glucose + i.m. insulin + peptide 0.1 ml/kg of 1.0 mg/ml) came out at 96 ± 8 mg/dL. Besides, in assay [6] (+120 min., oral glucose + i.m. insulin + peptide 0.1 ml/kg of 1.0 mg/ml), the Plasma Glucose (mg/dL), Glucose + Insulin + hGH32-46, +120 min. is 97 ± 6.6 mg/dL.
As to `CC[C@H](C)[C@H](N)C(=O)N1CCC[C@H]1C(=O)O` [NH2 --Ile--Pro--COOH, NH2 -Ile-Pro-COOH] (H-Ile-Pro-OH), the Plasma Glucose (mg/dL at 60 min.), Glucose + Insulin + Peptide in assay [7] came to 95 ± 30 mg/dL.
For the molecule `CC[C@H](C)[C@H](NC(=O)[C@H](Cc1ccc(O)cc1)NC(=O)[C@H](C)NC(=O)[C@H](CCC(=O)O)NC(=O)[C@@H](N)CCC(=O)O)C(=O)N1CCC[C@H]1C(=O)N[C@@H](CCCCN)C(=O)O` [Peptide No. 6, GLU--GLU--ALA--TYR--ILE--PRO--LYS] (H-EEAYIPK-OH), the “insulin potentiating effect (in words)” value in the assay on db/db mice (db/db mice aged 8 and 14 weeks, Table IV) is reported as “significant effectiveness”. Moreover, in the assay with db/db mice, the Plasma Glucose (mg/dL at 60 min.), Age: 8 weeks, Glucose + Insulin + Peptide stood at 92.3 ± 12 mg/dL and the Plasma Glucose (mg/dL at 60 min.), Age: 14 weeks, Glucose + Insulin + Peptide worked out at 124 ± 34 mg/dL. In addition, in the assay with Sprague-Dawley rats, the Plasma Glucose (mg/dL at 60 min.), Glucose + Insulin + peptide, Rat (normal) stood at 52 ± 6 mg/dL. In assay [5], the Plasma Glucose (mg/dL at 60 min.), Glucose + Insulin + peptide, Mouse db/db came out at 109 ± 22 mg/dL; the Plasma Glucose (mg/dL at 60 min.), Glucose + Insulin + peptide, Mouse db/m (normal) is 22 ± 10 mg/dL; the Plasma Glucose (mg/dL at 60 min.), Glucose + Insulin + peptide, Mouse ob/+ (normal) was determined as 28.5 ± 5 mg/dL; the Plasma Glucose (mg/dL at 60 min.), Glucose + Insulin + peptide, Mouse ob/ob stood at 118 ± 20 mg/dL. For the same molecule, the “insulin potentiating effect relative to deletion peptide (in words)” value in assay [5] (mice and rats, Table V) is given as “uniformly more effective in potentiating insulin effects than deletion peptide alone”. The “insulin potentiating effect (in words)” value in assay [7] (normal rats, Table III) is reported as “exceptionally active insulin potentiator”. In addition, in [7], the Plasma Glucose (mg/dL at 60 min.), Glucose + Insulin + Peptide was determined as 52 ± 28 mg/dL. For the same molecule, the Plasma Glucose (mg/dL), Glucose + Insulin + Peptide No. 6, +5 min. in [6] (+5 min., oral glucose + i.m. insulin + peptide 0.1 ml/kg of 0.5 mg/ml) is 62 ± 6 mg/dL. The Plasma Glucose (mg/dL), Glucose + Insulin + Peptide No. 6, +15 min. in assay [6] (+15 min., oral glucose + i.m. insulin + peptide 0.1 ml/kg of 0.5 mg/ml) came out at 69.5 ± 6 mg/dL. Besides, the Plasma Glucose (mg/dL), Glucose + Insulin + Peptide No. 6, +30 min. in assay [6] (+30 min., oral glucose + i.m. insulin + peptide 0.1 ml/kg of 0.5 mg/ml) is 68 ± 9.7 mg/dL. In assay [6] (+45 min., oral glucose + i.m. insulin + peptide 0.1 ml/kg of 0.5 mg/ml), the Plasma Glucose (mg/dL), Glucose + Insulin + Peptide No. 6, +45 min. amounted to 73 ± 3.5 mg/dL. In [6] (+60 min., oral glucose + i.m. insulin + peptide 0.1 ml/kg of 0.5 mg/ml), the Plasma Glucose (mg/dL), Glucose + Insulin + Peptide No. 6, +60 min. is 79 ± 6.5 mg/dL. In addition, the Plasma Glucose (mg/dL), Glucose + Insulin + Peptide No. 6, +120 min. in [6] (+120 min., oral glucose + i.m. insulin + peptide 0.1 ml/kg of 0.5 mg/ml) was 88 ± 12 mg/dL. Also, the “insulin potentiating effect relative to deletion peptide (in words)” value in assay [6] (Table VI) is “essentially on par with, or superior on a weight basis to, those of deletion peptide”.
With “synthetic tetradecapeptide having a sequence of amino acids copying residues at positions 31 through 44: literature tetradecapeptide copying hGH residues 31 through 44 (Yudaev et al.) (FEEAYIPKEQKYSF; UniProt P01241 57-70, looked up, fragment)”, the “in vivo hypoglycemic effect” value in the assay with rabbits and in the assay with normal rats [8] was “absence of any in vivo hypoglycemic effect” each time. Moreover, the “in vitro effect on fat cells” value in [4] (Yudaev et al. 1983) is “substantially the same in vitro effect on fat cells”.
Turning to `CC[C@H](C)[C@H](NC(=O)[C@H](Cc1ccc(O)cc1)NC(=O)[C@@H](C)NC(=O)[C@H](CCC(=O)O)NC(=O)[C@@H](N)CCC(=O)O)C(=O)N1CCC[C@H]1C(=O)N[C@@H](CCCCN)C(=O)O` [Peptide No. 9] (H-EE[dA]YIPK-OH), in the assay with db/db mice, the Plasma Glucose (mg/dL at 60 min.), Age: 8 weeks, Glucose + Insulin + Peptide came out at 90.8 ± 16 mg/dL and the Plasma Glucose (mg/dL at 60 min.), Age: 14 weeks, Glucose + Insulin + Peptide amounted to 228 ± 38 mg/dL.
